The nature of data set [1]: Mouse plasma protein binding. The class given is in vitro ADME.
The next data set deals with T1, human CYP 450 1A2 (Homo sapiens, UniProt P05177).
T1 sequence (P05177 1-516): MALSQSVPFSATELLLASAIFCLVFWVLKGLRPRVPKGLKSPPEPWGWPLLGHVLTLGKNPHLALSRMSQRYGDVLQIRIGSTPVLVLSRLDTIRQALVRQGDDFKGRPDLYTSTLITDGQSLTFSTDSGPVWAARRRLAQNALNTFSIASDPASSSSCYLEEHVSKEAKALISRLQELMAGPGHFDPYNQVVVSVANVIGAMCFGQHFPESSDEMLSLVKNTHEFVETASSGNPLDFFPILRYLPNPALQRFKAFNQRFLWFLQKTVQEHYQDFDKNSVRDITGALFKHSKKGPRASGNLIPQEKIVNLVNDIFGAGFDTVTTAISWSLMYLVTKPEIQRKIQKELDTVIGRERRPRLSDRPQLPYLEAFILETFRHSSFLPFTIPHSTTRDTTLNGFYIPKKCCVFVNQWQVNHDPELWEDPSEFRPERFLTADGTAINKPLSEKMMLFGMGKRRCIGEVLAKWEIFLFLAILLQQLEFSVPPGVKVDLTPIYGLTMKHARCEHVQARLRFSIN
Description: Human cytochrome P450 inhibition, 1A2. The class given is in vitro ADME. The conditions noted are these: 10 μM.

The next data set has as its system human CYP 450 3A4/5. Nature of the data set: Human cytochrome P450 inhibition, 3A4/5. The class given is in vitro ADME. The conditions noted are these: 10 μM.
In data set [2] the test system is murine bone marrow derived macrophages phagosome. Nature of the data set: Phagosomal maturation assays with sensor beads. The conditions noted are these: 10 μM. The class given is cell-based, mouse. Here is the method: Carboxyfluorescein (pH readout), DQ-BSA/Alexa Fluor 594 (AF594) (proteolysis readout), and 10,10′-Bis[3-carboxylpropyl]-9,9′-biacridinium (BAC)/AF594 (Cl^− readout) beads were generated as previously described (Podinovskaia et al, 2013; Tan et al, 2013; Tan et al, 2017; Yates et al, 2008). Bone marrow-derived macrophages were isolated from C57BL/6J mice (Jackson Laboratories) and maintained as described above. 2×10^5 macrophages/well were seeded into 96-well clear bottom black plates, and utilized in assays one-two days post-seeding. […] Assay buffer consisted of PBS, pH 7.2, supplemented with 5% FBS, 5 mM dextrose, 1 mM CaCl2, 2.7 mM KCl, and 0.5 mM MgCl2 in the case of assays with the carboxyfluorescein or DQ-BSA/AF594 beads (Buter et al, 2019; Dutta et al, 2020). For assays with the BAC/AF594 beads, assay buffer consisted of PBS, pH 7.2, supplemented with 5% FBS, 5 mM dextrose, 1 mM calcium acetate, 1.35 mM K2SO4, and 0.5 mM MgSO4 (Tan et al, 2013). Sensor beads at ˜2-5 beads/macrophage in appropriate assay buffer were finally added, with data acquisition on a Biotek Synergy H1 microplate reader with bottom read signal detection started within 2-3 minutes of bead addition. Excitation/emission wavelengths were 450 nm/520 nm and 490 nm/520 nm for carboxyfluorescein, 490 nm/520 nm for DQ-BSA, 365 nm/505 nm for BAC, and 590 nm/617 nm for AF594. Each experiment was run with a total of 3-5 replicate wells/condition, with temperature maintained at 37° C. throughout the assay. Wells were read every 2 minutes for 2 hours for the carboxyfluorescein bead assays, every 2 minutes for 4 hours for the DQ-BSA/AF594 bead assays, and every 1 minute for 2 hours for the BAC/AF594 bead assays. Analyses of the results were performed as previously described (Buter et al, 2019; Dutta et al, 2020; Podinovskaia et al, 2013; Tan et al, 2013).

As to `CCSc1ncc(CN2CCN(c3nc4ccccc4o3)CC2)cn1` [Compound C6, 2-(4-((2-(ethylthio)pyrimidin-5-yl)methyl)piperazin-1-yl)benzo[d]oxazole], the “protein binding to mouse plasma” value in data set [1] stood at 97.0%. Also, the “% inhibition of CYP 1A2” value at human CYP 450 1A2 is given as less than 1%. In the data set with human CYP 450 3A4/5, the “% inhibition of CYP 3A4/5” value is reported as less than 1%. Further, the “increase in [Cl−] during macrophage phagosomal maturation” value in data set [2] (BAC/AF594 beads) was “no significant effect”. Also, the “macrophage phagosomal proteolytic activity” value in data set [2] (DQ-BSA/AF594 beads) is reported as “did not affect macrophage phagosomal proteolytic activity”. Further, in data set [2] (carboxyfluorescein beads), the macrophage phagosomal acidification entry was “did not alter macrophage phagosomal acidification”.

The values above are taken from patent US20240300934A1, “COMPOUNDS FOR MODULATING MYCOBACTERIUM TUBERCULOSIS RESPONSE” (priority 2021, published 2024).
